Experiments:
activated human MoDCs = experiment: Human MoDC IL-23 secretion assay; assay type: cell-based; conditions: PGE1-OH (10 nM); LPS/R-848 activated human MoDCs, 24 h; read-out: IC50 (Ave. of two experiments), inhibiting PGE1-OH enhanced IL-23 production
Protocol: In vitro human monocytes derived DC assay. CD14^+ cells were purified from human PBMCs using Miltenyi CD14 microbeads, and differentiated with human GM-CSF (500 U/ml)+human IL-4 (500 U/ml) in complete RPMI medium containing 10% charcoal-stripped FBS for […]. The unattached imDCs were stimulated with LPS (10 ng/ml)+R-848 (2.5 μg/ml) with or without addition of EP4 agonist/antagonist or anti-PGE2 Ab at the concentrations indicated for 24 h. IL-23 in culture supernatants were measured by ELISA (eBioscience).
Human CD14^+ monocytes were differentiated into imDCs with GM-CSF plus IL-4 for 7 days and re-stimulated with LPS/R-848 in the presence or absence of exogenous PGE1-OH (1-100 nM) and with and without ER-819762 (FIG. 13) or ER-819924 or anti-PGE2 Ab (FIG. 14) for 24 h. IL-23 secretion in culture supernatants was measured by ELISA. […] IC50 values of representative compounds in human MoDC IL-23 secretion assay.

human T-bet = human T-bet (Homo sapiens, UniProt Q9UL17); experiment: HEKT-bet-luc assay (normalized); assay type: cell-based; conditions: reference compound used for normalization; read-out: established potency of the reference compound (IC50)
human T-bet, sequence (Q9UL17 whole entry): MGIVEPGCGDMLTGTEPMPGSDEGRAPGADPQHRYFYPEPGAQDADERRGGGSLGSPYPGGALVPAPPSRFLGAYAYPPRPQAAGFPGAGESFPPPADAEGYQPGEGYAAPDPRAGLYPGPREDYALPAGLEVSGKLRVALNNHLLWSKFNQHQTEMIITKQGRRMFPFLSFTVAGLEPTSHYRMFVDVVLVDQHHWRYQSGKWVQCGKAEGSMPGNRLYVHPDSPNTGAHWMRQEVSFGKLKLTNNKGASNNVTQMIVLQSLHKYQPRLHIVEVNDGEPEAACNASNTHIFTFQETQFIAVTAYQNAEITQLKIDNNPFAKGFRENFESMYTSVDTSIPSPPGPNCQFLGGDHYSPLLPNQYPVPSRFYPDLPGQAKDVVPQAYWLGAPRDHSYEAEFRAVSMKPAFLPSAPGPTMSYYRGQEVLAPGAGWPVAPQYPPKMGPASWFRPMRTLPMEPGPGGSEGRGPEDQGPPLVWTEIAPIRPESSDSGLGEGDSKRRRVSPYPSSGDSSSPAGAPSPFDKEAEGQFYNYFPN
Protocol: HEKT-bet-luc assay: This assay measures a T-bet dependent reporter (luciferase) activity in engineered HEK cells that express a human T-bet and a T-box responsive element driving luciferase reporter. HEKT-bet cells were plated at 2×10^4/well in 96-well plate and compound was added into cell culture for 24 hours. Luciferase activity was measured by adding 50 μl of Steady-Glo reagent (Promega) and samples were read in Victor V reader (PerkinElmer). The activity of compound was determined by comparing compound treated samples to non-compound treated vehicle controls. The IC50 values were calculated utilizing a maximum value corresponding to the amount of luciferase in the absence of a test compound and a minimum value corresponding to a test compound value obtained at maximum inhibition.
Determination of Normalized HEKT-bet IC50 values: Compounds were assayed in microtiter plates. […] The un-normalized IC50 value for a particular compound was divided by the IC50 value determined for the reference compound in the same microtiter plate to provide a relative potency value. […]
Exemplary compounds of the present invention were assayed according to the methods set forth above in the HEKT-bet-luc assay described above. Table 2 below set forth exemplary compounds of the present invention having an IC50 of up to the indicated amount (μM) as determined by the normalized HEKT-bet-luc assay described above.

[1] = tested on: activated mouse CD4+ T cells; experiment: IL-17 production in activated mouse CD4+ T cells; assay type: cell-based; conditions: anti-CD3/anti-CD28 stimulated CD4+ T cells
Protocol: To study the effect of EP4 agonist/antagonist on IL-17 production, total CD4^+ T cells from C57BL/6 mice were activated with plate-bound anti-CD3 (2 μg/ml) plus soluble anti-CD 28 (2 μg/ml) in the presence or absence of IL-23 (10 ng/ml) or EP4 agonist/antagonists at indicated concentrations for 3-5 days. Culture supernatants were analyzed by IL-17 ELISA, and cell pellets were used to measure cell proliferation with CellTite-Glo reagents.
To investigate whether EP4 also plays a role in a Th17 response, the effect of EP4 activation by PGE2 or EP4 agonist on IL-17 production in activated mouse CD4^+ T cells was examined. Total CD4^+ T cells were stimulated with anti-CD3/anti-CD28 with and without IL-23 and in the presence or absence of PGE2 or EP4 agonist PGE1-OH (0.1 nM to 1000 nM) for 3-5 days. IL-17 in culture supernatants was measured by ELISA and cell proliferation was measured by CellTiter-glo.

EP4 = molecular target: T1, EP4 (Homo sapiens, UniProt P35408); experiment: PGE2 induced CRE-PLAP reporter assay in SE302 cells; assay type: cell-based; conditions: tested at 0.3 nM to 10 μM
T1 construct: SE302 cells that express endogenous EP4; endogenous in cells; host or cells: SE302 cells
T1 sequence (P35408 whole entry): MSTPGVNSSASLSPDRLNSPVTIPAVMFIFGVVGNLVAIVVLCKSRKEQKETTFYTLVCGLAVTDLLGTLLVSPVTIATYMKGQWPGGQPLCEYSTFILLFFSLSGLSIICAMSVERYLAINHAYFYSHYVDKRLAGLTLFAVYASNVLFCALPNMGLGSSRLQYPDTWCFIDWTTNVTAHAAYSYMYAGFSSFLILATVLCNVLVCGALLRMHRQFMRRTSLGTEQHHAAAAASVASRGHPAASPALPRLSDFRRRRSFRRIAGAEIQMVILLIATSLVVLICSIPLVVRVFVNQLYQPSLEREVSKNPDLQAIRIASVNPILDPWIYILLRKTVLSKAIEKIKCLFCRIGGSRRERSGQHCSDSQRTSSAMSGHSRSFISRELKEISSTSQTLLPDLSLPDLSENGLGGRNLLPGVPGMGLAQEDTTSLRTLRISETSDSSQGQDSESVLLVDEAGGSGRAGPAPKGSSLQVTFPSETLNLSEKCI
Protocol: CRE-PLAP reporter assay. SE302 cells that express endogenous EP4 were stimulated with PGE2 in the presence or absence of ER-819762 for overnight, and PLAP activity was measured.

Naive CD4 T cells = experiment: Mouse Th1 differentiation assay; assay type: cell-based; conditions: for effect on Th1 differentiation: added during Th1 differentiation, 3 days
Protocol: In vitro T cell assays. Naive CD4^+ T cells were purified from spleens of either BALB/c or D011.10 mice by Robosep as described by the manufacture. For BALB/c mice, 1×10^5 of CD4^+ T cells were cultured for 3-6 days in a 96-well plate in 100 μl of complete RPMI medium (Cellgro) containing either 10% of regular fetal bovine serum (Hyclone) or charcoal stripped FBS (Hyclone) (when exogenous PGE2 or EP4 agonists were added to the culture) under either neutral condition (1 μg/ml of plate-bound anti-CD3+1 μg/ml of soluble anti-CD28+10 ng/ml of mouse IL-2) or under Th1 promoting condition (neutral+5 ng/ml of mouse IL-12+10 μg/ml of anti-IL-4) or under Th2 differentiation condition (neutral+10 ng/ml of mouse IL-4+10 μg/ml of […]). IFNγ or IL-4 in culture supernatants were detected by ELISA. Cell pellets were used to measure cell proliferation with either Alamar blue or CellTiter-Glo reagents according to the instructions of the manufacture. For D011.10 mice, mitomycin C treated splenocytes from BALB/c mice were used as antigen presenting cells and co-cultured with naive CD4^+ T cells in 5 to 1 ratio (5×10^5 of mitomycin C treated splenocytes in 100 μl medium+1×10^5 CD^4 T cells in 100 μl medium) and stimulated with OVA peptide (0.3 ng/ml) under either neutral, Th1 or Th2 promoting conditions as described above. EP4 agonists, antagonists or anti-PGE2 Ab were added during Th cell differentiation.
To investigate whether EP4 activation plays a role in Th1 differentiation, the effect of PGE2 or EP4 agonist and anti-PGE2 antibody was examined in a mouse Th1 differentiation assay. Naive CD4 T cells were differentiated with Th1 promoting agents for 3 days. Th1 cytokine IFNγ in culture supernatants was measured by ELISA. Cell proliferation was measured by Alamar blue assay. PGE2 or EP4 agonist PGE1-OH was added during Th1 differentiation.

CAIA mouse = experiment: Suppression of arthritis development in CAIA; assay type: in vivo; conditions: once daily PO day 0 to day 7
Protocol: Suppression of arthritis development in CAIA. BALB/c mice were injected i.v. with 1 mg of anti-type II collagen antibody at day 0, and 3 days later 25 μg of LPS was injected i.p. with active compound and methotrexate (MTX) was given once daily PO from day 0 to day 7. Arthritis score and body weight was monitored over the course of study.

CCN1C(=O)N2Cc3cc(OC)cc(OC)c3[C@@H](C)C=C2C12CCN(Cc1nc(C)oc1C)CC2 [ER-811283-01]
IC50 (activated human MoDCs): 57 nM

COCCN1C(=O)N2Cc3cc(OC)cc(OC)c3C(C)(C)C=C2C12CCN(Cc1cc(OC)cc(OC)c1)CC2 [ER-819544]
IC50 (human T-bet): 35 nM

CCN1C(=O)N2Cc3cc(OC)cc(OC)c3[C@@H](C)C=C2C12CCN(Cc1cc(C)cc(C)c1)CC2 [ER-819762-01]
effect on PGE2/PGE1-OH enhanced IL-17 production [1]: suppressed the activity

CCN1C(=O)N2Cc3cc(OC)cc(OC)c3[C@@H](C)C=C2C12CCN(Cc1cc(C)cc(C)c1)CC2 [ER-819762]
inhibition of PGE2 induced CRE-PLAP reporter activity (EP4): potent inhibitory activities | effect on PGE2/PGE1-OH enhanced IL-17 production [1]: suppresses | added activity to anti-PGE2 Ab in Th1 differentiation (Naive CD4 T cells; combination with anti-PGE2 Ab): no added activity | IC50 (activated human MoDCs): 40 to 200 nM

CCN1C(=O)N2Cc3cc(OC)cc(OC)c3[C@@H](C)C=C2C12CCN(Cc1c[nH]nc1C)CC2 [ER-819826-01]
IC50 (activated human MoDCs): 185 nM

CCN1C(=O)N2Cc3cc(OC)cc(OC)c3[C@@H](C)C=C2C12CCN(Cc1cccn1C)CC2 [ER-819924]
inhibition of PGE2 induced CRE-PLAP reporter activity (EP4): potent inhibitory activities | IC50 (activated human MoDCs): < 200 nM

CCCCC[C@H](O)/C=C/[C@H]1[C@H](O)CC(=O)[C@@H]1CCCCCCCO [PGE1-OH, PGE1-alcohol]
effect on Th1 differentiation (Naive CD4 T cells): enhanced Th1 differentiation

CCCCC[C@H](O)/C=C/[C@H]1[C@H](O)CC(=O)[C@@H]1C/C=C\CCCC(=O)O [PGE2, prostaglandin E2]
effect on Th1 differentiation (Naive CD4 T cells): enhanced Th1 differentiation

CN(Cc1cnc2nc(N)nc(N)c2n1)c1ccc(C(=O)N[C@@H](CCC(=O)O)C(=O)O)cc1 [methotrexate]
activity in CAIA model (CAIA mouse): not particularly active

— US20100305098A1, “METHODS OF USE” (priority 2007, published 2010)
